Values quoted from earlier work in PubChem BioAssay AID1259409 (Chemical Carcinogenesis Research Information System (CCRIS), 2018).

System: rodent chemically induced tumor inhibition, incidence and multiplicity
Test: CCRIS tumor inhibitor studies
Conditions: Route [Inhibitor]: ORAL, Promoter: NONE USED

CC1=C(/C=C/C(C)=C/C=C/C(C)=C\C(=O)O)C(C)(C)CCC1
tumour outcome (control, treated, inhibition, significance) (Carcinogen: N-(4-(5-NITRO-2-FURYL)-2-THIAZOLYL)FORMAMIDE, 24554-26-5, Dose [Inhibitor]: 120 MG/KG DIET DAILY STARTING 1 WK AFTER COMPLETION OF CARCINOGEN TREATMENT AND CONTINUING UNTIL END OF STUDY (STUDY DUR, Species: RAT, Strain/Sex: F344/FEMALE, Target Tissue: Type of Lesion: URINARY BLADDER: PAPILLOMA, Dose [Carcinogen]: 2 G/KG DIET DAILY FOR 10 WK): 10/100 (10%), 12/100 (12%), -20%, p 0.655 | tumour outcome (control, treated, inhibition, significance) (Carcinogen: N-(4-(5-NITRO-2-FURYL)-2-THIAZOLYL)FORMAMIDE, 24554-26-5, Dose [Inhibitor]: 240 MG/KG DIET DAILY STARTING 1 WK AFTER COMPLETION OF CARCINOGEN TREATMENT AND CONTINUING UNTIL END OF STUDY (STUDY DUR, Species: RAT, Strain/Sex: F344/FEMALE, Target Tissue: Type of Lesion: URINARY BLADDER: CARCINOMA, Dose [Carcinogen]: 2 G/KG DIET DAILY FOR 10 WK): 36/100 (36%), 47/100 (47%), -31%, p 0.024 | tumour outcome (control, treated, inhibition, significance) (Carcinogen: N-(4-(5-NITRO-2-FURYL)-2-THIAZOLYL)FORMAMIDE, 24554-26-5, Dose [Inhibitor]: 240 MG/KG DIET DAILY STARTING 1 WK AFTER COMPLETION OF CARCINOGEN TREATMENT AND CONTINUING UNTIL END OF STUDY (STUDY DUR, Species: RAT, Strain/Sex: F344/FEMALE, Target Tissue: Type of Lesion: URINARY BLADDER: PAPILLOMA, Dose [Carcinogen]: 2 G/KG DIET DAILY FOR 10 WK): 10/100 (10%), 7/100 (7%), 30%, p 0.446 | tumour outcome (control, treated, inhibition, significance) (Carcinogen: N-BUTYL-N-(4-HYDROXYBUTYL)NITROSAMINE, 3817-11-6, Dose [Inhibitor]: 0.8 MMOL/KG DIET DAILY FOR 19 WK STARTING 7 D AFTER FINAL CARCINOGEN DOSE (STUDY DURATION: 6 MO), Species: RAT, Strain/Sex: F344/FEMALE, Target Tissue: Type of Lesion: URINARY BLADDER: TRANSITIONAL CELL CARCINOMA, Dose [Carcinogen]: 150 MG 2/WK FOR 6 WK): 28/80 (35%), 7/40 (18%), 49%, p<0.05 | tumour outcome (control, treated, inhibition, significance) (Carcinogen: N-BUTYL-N-(4-HYDROXYBUTYL)NITROSAMINE, 3817-11-6, Dose [Inhibitor]: 0.8 MMOL/KG DIET DAILY FOR 19 WK STARTING 7 D AFTER FINAL CARCINOGEN DOSE (STUDY DURATION: 6 MO), Species: RAT, Strain/Sex: F344/MALE, Target Tissue: Type of Lesion: URINARY BLADDER: TRANSITIONAL CELL CARCINOMA, Dose [Carcinogen]: 200 MG 2/WK FOR 8 WK): 55/60 (92%), 24/30 (80%), 13%, not significant | tumour outcome (control, treated, inhibition, significance) (Carcinogen: N-BUTYL-N-(4-HYDROXYBUTYL)NITROSAMINE, 3817-11-6, Dose [Inhibitor]: 150 MG/G DIET DAILY STARTING 7 D AFTER THE LAST CARCINOGEN DOSE AND CONTINUING THROUGH THE END OF THE STUDY (STUDY DURAT, Species: MOUSE, Strain/Sex: B6D2F1/FEMALE, MALE, Target Tissue: Type of Lesion: URINARY BLADDER: TRANSITIONAL CELL CARCINOMA, Dose [Carcinogen]: 10 MG 2/WK FOR 9 WK): 23/54 (43%), 19/55 (35%), 19%, not significant | tumour outcome (control, treated, inhibition, significance) (Carcinogen: N-BUTYL-N-(4-HYDROXYBUTYL)NITROSAMINE, 3817-11-6, Dose [Inhibitor]: 150 MG/KG DIET DAILY STARTING 7 D AFTER THE LAST CARCINOGEN DOSE AND CONTINUING THROUGH THE END OF THE STUDY (STUDY DURA, Species: MOUSE, Strain/Sex: B6D2F1/FEMALE, MALE, Target Tissue: Type of Lesion: URINARY BLADDER: TRANSITIONAL CELL CARCINOMA, Dose [Carcinogen]: 5 MG 2/WK FOR 9 WK): 29/71 (41%), 19/69 (28%), 32%, not significant | tumour outcome (control, treated, inhibition, significance) (Carcinogen: N-BUTYL-N-(4-HYDROXYBUTYL)NITROSAMINE, 3817-11-6, Dose [Inhibitor]: 200 MG/G DIET DAILY STARTING 7 D AFTER THE LAST CARCINOGEN DOSE AND CONTINUING THROUGH THE END OF THE STUDY (STUDY DURAT, Species: MOUSE, Strain/Sex: B6D2F1/FEMALE, MALE, Target Tissue: Type of Lesion: URINARY BLADDER: TRANSITIONAL CELL CARCINOMA, Dose [Carcinogen]: 5 MG 2/WK FOR 9 WK): 29/71 (41%), 17/71 (24%), 41%, p<0.05 | tumour outcome (control, treated, inhibition, significance) (Carcinogen: N-BUTYL-N-(4-HYDROXYBUTYL)NITROSAMINE, 3817-11-6, Dose [Inhibitor]: 200 MG/G DIET DAILY STARTING 7 D AFTER THE LAST CARCINOGEN DOSE AND CONTINUING THROUGH THE END OF THE STUDY (STUDY DURAT, Species: MOUSE, Strain/Sex: B6D2F1/FEMALE, MALE, Target Tissue: Type of Lesion: URINARY BLADDER: TRANSITIONAL CELL CARCINOMA, Dose [Carcinogen]: 10 MG 2/WK FOR 9 WK): 23/54 (43%), 12/54 (22%), 49%, p<0.05 | tumour outcome (control, treated, inhibition, significance) (Carcinogen: N-BUTYL-N-(4-HYDROXYBUTYL)NITROSAMINE, 3817-11-6, Dose [Inhibitor]: 200 MG/KG DIET DAILY STARTING 7 D AFTER LAST CARCINOGEN DOSE AND CONTINUING THROUGH THE END OF STUDY (STUDY DURATION: 6, Species: MOUSE, Strain/Sex: C57BL/MALE, Target Tissue: Type of Lesion: URINARY BLADDER: NEOPLASM, Dose [Carcinogen]: 7.5 MG 2/WK FOR 6 WK): 9/24 (38%), 1/19 (5%), 87%, p<0.05
